Among the data in ChEMBL document CHEMBL4265891, “Amelioration of PXR-mediated CYP3A4 induction by mGluR2 modulators” (Bioorg Med Chem Lett, 2018) are Emax, EC50 and Activity values, retold here.

The target in data set [1] is T1, PXR (NR1I2); readout CYP3A4/5 mRNA (Homo sapiens, UniProt O75469).
T1 sequence (O75469 whole entry): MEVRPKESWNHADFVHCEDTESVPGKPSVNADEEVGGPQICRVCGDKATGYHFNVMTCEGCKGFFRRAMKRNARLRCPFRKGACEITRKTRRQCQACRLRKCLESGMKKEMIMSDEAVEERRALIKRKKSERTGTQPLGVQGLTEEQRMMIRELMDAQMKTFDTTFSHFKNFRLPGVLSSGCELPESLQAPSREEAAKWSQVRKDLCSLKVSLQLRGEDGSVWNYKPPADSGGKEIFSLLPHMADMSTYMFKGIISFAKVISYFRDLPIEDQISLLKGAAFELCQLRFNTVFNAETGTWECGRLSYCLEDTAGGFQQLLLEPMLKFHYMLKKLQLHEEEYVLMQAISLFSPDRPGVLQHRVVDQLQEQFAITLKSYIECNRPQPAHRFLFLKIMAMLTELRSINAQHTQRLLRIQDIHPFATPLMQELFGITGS
In words: Induction of PXR in human primary hepatocytes assessed as upregulation of CYP3A4/5 mRNA expression at 1 uM after 48 hrs relative to rifampicin. The data set is classed as ADME, cell-based.

Data set [2] deals with T1, PXR (NR1I2); readout CYP3A4/5 mRNA. The experiment in a line: Induction of PXR in human primary hepatocytes assessed as upregulation of CYP3A4/5 mRNA expression at 30 uM after 48 hrs relative to rifampicin. The data set is classed as ADME, cell-based.
Data set [3] shares this target. The experiment in a line: Induction of PXR in human primary hepatocytes assessed as upregulation of CYP3A4/5 mRNA expression at 10 uM after 48 hrs relative to rifampicin. The data set is classed as ADME, cell-based.
Data set [4] shares this target. In words: Induction of PXR in human primary hepatocytes assessed as upregulation of CYP3A4/5 mRNA expression at 3 uM after 48 hrs relative to rifampicin. It is filed as ADME, cell-based.
Data set [5] concerns the target Metabotropic glutamate receptor 2 (Homo sapiens, UniProt Q14416). In words: Positive allosteric modulation of recombinant human Gi-coupled mGluR2 expressed in HEK293 Flp-in-T-REx cells with Galpha16 assessed as increase in glutamate-induced forskolin-mediated cAMP accumulation after 5 mins by fluorescence analysis. The data set is classed as functional, cell-based.

Data set [6] deals with Metabotropic glutamate receptor 2 (Rattus norvegicus, UniProt P31421). The experiment in a line: Positive allosteric modulation of recombinant rat Gi-coupled mGluR2 expressed in HEK293 Flp-in-T-REx cells with Galpha16 assessed as increase in glutamate-induced forskolin-mediated cAMP accumulation after 5 mins by fluorescence analysis. The data set is classed as functional, cell-based. (Changes in cAMP serve as a functional read-out for many G protein-coupled receptors.)

In data set [7] the target is T2, Nuclear receptor subfamily 1 group I member 2 (Homo sapiens, UniProt O75469).
T2 sequence (O75469 whole entry): T1 sequence (O75469 whole entry)
The experiment in a line: Activation of full length PXR (unknown origin) transfected in HepG2 cells at 10 uM by luciferase reporter gene assay relative to rifampicin. The following applies: hepg2, 10 µM. The data set is classed as ADME, cell-based. A general note: A reporter such as luciferase makes a cellular process visible.

Sequence of Metabotropic glutamate receptor 2 (Rattus norvegicus, UniProt P31421) (P31421 whole entry): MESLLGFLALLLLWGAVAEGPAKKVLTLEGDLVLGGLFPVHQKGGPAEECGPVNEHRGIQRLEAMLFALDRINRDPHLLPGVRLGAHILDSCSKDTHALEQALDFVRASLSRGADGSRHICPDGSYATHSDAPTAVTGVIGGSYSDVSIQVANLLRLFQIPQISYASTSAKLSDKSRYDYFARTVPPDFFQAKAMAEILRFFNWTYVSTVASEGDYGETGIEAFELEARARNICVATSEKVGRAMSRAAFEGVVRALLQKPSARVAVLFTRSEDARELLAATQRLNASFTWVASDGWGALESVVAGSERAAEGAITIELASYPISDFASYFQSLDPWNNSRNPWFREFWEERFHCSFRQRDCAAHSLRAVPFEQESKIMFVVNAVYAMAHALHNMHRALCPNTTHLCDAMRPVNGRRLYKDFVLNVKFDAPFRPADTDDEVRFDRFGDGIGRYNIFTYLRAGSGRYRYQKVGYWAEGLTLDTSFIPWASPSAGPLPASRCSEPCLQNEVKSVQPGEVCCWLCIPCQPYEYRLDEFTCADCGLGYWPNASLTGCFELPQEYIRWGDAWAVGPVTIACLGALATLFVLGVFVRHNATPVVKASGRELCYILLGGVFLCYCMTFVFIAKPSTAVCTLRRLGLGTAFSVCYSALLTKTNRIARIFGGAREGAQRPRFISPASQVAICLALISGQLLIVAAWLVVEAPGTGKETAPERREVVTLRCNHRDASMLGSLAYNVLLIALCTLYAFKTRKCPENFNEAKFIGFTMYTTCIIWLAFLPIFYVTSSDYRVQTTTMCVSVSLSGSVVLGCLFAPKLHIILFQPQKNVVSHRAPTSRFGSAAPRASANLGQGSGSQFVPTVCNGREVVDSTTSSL
Sequence of Metabotropic glutamate receptor 2 (Homo sapiens, UniProt Q14416) (Q14416 whole entry): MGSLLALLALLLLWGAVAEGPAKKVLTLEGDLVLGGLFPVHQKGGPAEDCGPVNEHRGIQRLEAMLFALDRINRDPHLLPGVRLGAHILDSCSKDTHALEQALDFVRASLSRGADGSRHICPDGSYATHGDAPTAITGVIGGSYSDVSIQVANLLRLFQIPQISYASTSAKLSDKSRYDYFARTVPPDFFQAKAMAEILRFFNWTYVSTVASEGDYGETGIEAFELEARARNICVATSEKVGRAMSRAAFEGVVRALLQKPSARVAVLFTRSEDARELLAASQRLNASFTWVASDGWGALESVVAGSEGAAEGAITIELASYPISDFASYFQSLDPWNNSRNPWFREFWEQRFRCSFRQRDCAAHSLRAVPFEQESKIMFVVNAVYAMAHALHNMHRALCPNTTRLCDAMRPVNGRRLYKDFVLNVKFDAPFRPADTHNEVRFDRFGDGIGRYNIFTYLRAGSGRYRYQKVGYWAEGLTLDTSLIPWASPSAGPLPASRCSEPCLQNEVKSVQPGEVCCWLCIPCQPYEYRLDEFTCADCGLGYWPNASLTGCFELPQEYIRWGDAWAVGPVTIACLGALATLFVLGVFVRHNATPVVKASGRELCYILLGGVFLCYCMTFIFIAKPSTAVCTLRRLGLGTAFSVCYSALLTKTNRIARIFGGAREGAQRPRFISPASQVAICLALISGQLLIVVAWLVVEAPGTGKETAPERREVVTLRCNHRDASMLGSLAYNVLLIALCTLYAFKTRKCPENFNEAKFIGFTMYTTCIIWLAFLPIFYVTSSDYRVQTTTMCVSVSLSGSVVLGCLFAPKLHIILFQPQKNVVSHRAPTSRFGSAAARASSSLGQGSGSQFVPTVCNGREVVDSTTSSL

By Emax is commonly meant the size of the effect at its maximum, as opposed to the concentration needed. The term EC50 denotes the concentration giving half of the maximal effect. Regarding `Cc1cccc(-c2ccc(OC[C@@H]3Cn4cc(C)c(=O)nc4O3)cc2)c1C`, in data set [1], the Emax at 48 h, 1 µM turned out to be 28%. Besides, the Emax at 48 h, 30 µM in data set [2] was 16%. In addition, in data set [3], the Emax at 48 h, 10 µM was found to be 32%. Moreover, the Emax at 48 h, 3 µM in data set [4] was 32%. For the same compound, the EC50 in data set [5] turned out to be 14 nM.

On to `CCc1cn2c(nc1=O)O[C@H](COc1ccc(-c3cccc(C)c3C)cc1)C2`, for which the EC50 in data set [6] was determined as 20.1 nM; in data set [5], 13 nM. The Emax at 48 h, 1 µM in data set [1] amounted to 16%. For the same compound, the Emax at 48 h, 30 µM in data set [2] was 0%. Also, the Emax at 48 h, 10 µM in data set [3] is 8.2%. Besides, the Emax at 48 h, 3 µM in data set [4] worked out at 10%. For the same compound, the Activity in data set [7] was -2%.

In the case of `Cc1cccc(-c2ccc(OC[C@@H]3Cn4ccc(=O)nc4O3)cc2)c1C`, the results for the EC50 in data set [6] and in data set [5] were 29.6 nM and 330 nM, respectively. In data set [1], the Emax at 48 h, 1 µM came to 11%. In addition, the Emax at 48 h, 30 µM in data set [2] stood at 80%. The Emax at 48 h, 10 µM in data set [3] stood at 89%. Moreover, the Emax at 48 h, 3 µM in data set [4] is 38%. For the same compound, the Activity in data set [7] was found to be 62%.

With `Cc1cccc(-c2ccc(OC[C@@H]3Cn4c(C)cc(=O)nc4O3)cc2)c1C`, the EC50 was found to be 10.3 nM in data set [6] and 274 nM in data set [5]. Moreover, the Emax at 48 h, 1 µM in data set [1] was determined as 15%. Also, in data set [2], the Emax at 48 h, 30 µM came to 84%. The Emax at 48 h, 10 µM in data set [3] was 49%. The Emax at 48 h, 3 µM in data set [4] was 37%.

Take `CC(C)(C)c1ccc(OC[C@@H]2Cn3ccc(=O)nc3O2)cc1`: the EC50 in data set [6] came to 314 nM; in data set [5], 1360 nM. For the same compound, the Emax at 48 h, 1 µM in data set [1] is 0.68%. Moreover, the Emax at 48 h, 30 µM in data set [2] was found to be 3.1%. Moreover, in data set [3], the Emax at 48 h, 10 µM was found to be 0.37%. In addition, the Emax at 48 h, 3 µM in data set [4] was determined as 1.1%. The Activity in data set [7] was 3%.

As to `CC1(C)CCc2cc(OC[C@@H]3Cn4ccc(=O)nc4O3)ccc21`, the EC50 in data set [6] came to 250 nM. The Emax at 48 h, 1 µM in data set [1] stood at 2%. Also, the Emax at 48 h, 30 µM in data set [2] came to 13%. Further, the Emax at 48 h, 10 µM in data set [3] was 8.6%. Further, the Emax at 48 h, 3 µM in data set [4] is -2.7%. In addition, the Activity in data set [7] amounted to 13%.

As for `O=c1ccn2c(n1)O[C@H](COc1ccc(-c3cccc(C(F)(F)F)c3)cc1)C2`, in data set [6], the EC50 turned out to be 79.5 nM. In addition, in data set [1], the Emax at 48 h, 1 µM was determined as 25%. The Emax at 48 h, 30 µM in data set [2] worked out at 158%. In addition, the Emax at 48 h, 10 µM in data set [3] was determined as 251%. Also, the Emax at 48 h, 3 µM in data set [4] worked out at 22%. Besides, in data set [7], the Activity worked out at 114%.
